The values below come from ChEMBL document CHEMBL2073854, “Localization and function of the organic anion-transporting polypeptide Oatp2 in rat liver” (Gastroenterology, 1999).

The target of data set [1] is T1, Solute carrier organic anion transporter family member 1A4 (Rattus norvegicus, UniProt O35913).
T1 sequence (O35913 whole entry): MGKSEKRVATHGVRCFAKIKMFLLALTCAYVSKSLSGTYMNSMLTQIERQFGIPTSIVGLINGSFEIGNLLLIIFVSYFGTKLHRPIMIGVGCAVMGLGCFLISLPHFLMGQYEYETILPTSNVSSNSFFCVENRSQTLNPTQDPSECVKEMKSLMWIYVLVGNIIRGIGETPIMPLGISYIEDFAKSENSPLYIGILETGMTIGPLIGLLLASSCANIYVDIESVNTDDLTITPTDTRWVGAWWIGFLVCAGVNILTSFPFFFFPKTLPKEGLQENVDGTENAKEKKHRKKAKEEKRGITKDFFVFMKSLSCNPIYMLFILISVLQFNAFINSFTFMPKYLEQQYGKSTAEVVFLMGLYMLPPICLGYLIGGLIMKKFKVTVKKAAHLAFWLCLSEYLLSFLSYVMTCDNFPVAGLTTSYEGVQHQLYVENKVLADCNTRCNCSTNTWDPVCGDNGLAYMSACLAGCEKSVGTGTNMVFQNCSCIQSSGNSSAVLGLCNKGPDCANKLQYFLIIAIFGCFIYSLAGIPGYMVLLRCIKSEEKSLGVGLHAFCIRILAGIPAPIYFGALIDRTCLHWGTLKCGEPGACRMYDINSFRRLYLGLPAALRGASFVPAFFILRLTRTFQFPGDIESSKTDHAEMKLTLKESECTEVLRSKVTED
Kind of data set: (§1) TP_TRANSPORTER: uptake in Xenopus laevis oocytes. The conditions noted are these: oocyte. The data set is classed as functional, cell-based.

Data set [2] concerns the target T2, Solute carrier organic anion transporter family member 1A1 (Rattus norvegicus, UniProt P46720).
T2 sequence (P46720 whole entry): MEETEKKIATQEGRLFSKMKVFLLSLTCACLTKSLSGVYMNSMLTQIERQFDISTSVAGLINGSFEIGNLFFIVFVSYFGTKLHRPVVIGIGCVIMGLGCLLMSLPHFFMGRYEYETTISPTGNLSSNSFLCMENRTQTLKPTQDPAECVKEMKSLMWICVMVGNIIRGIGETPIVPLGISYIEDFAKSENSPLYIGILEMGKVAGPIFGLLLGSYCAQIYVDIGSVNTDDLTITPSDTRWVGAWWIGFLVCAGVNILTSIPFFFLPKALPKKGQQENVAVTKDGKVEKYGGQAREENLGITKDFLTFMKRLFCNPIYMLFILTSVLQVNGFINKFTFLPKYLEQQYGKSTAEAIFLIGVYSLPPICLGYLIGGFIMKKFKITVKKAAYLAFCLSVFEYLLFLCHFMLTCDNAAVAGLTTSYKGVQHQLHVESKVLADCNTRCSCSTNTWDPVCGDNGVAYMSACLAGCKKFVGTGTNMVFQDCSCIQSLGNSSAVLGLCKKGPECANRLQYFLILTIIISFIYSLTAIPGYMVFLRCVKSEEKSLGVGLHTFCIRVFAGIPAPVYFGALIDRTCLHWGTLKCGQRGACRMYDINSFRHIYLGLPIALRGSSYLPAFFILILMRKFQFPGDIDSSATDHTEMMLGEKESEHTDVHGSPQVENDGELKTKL
The data set is described as §1. Type of data set: functional, cell-based. The conditions noted are these: oocyte.

Substrate in data set [3]: C[C@H](CCC(=O)NCCS(=O)(=O)O)[C@H]1CC[C@H]2[C@@H]3[C@@H](O)C[C@@H]4C[C@H](O)CC[C@]4(C)[C@H]3CC[C@]12C
The description is as §1. Type of data set: functional, cell-based, Oocyte.

Substrate in data set [4]: [H][C@@]12CC=C3C[C@@H](OS(=O)(=O)O)CC[C@]3(C)[C@@]1([H])CC[C@]1(C)C(=O)CC[C@@]21[H]
Described as §1. The data set is classed as functional, cell-based, Oocyte.

Substrate in data set [5]: C[C@H](CCC(=O)NCCS(=O)(=O)O)[C@H]1CC[C@H]2[C@@H]3[C@H](O)C[C@@H]4C[C@H](O)CC[C@]4(C)[C@H]3CC[C@]12C
Described as §1. Type of data set: functional, cell-based, Oocyte.

Substrate in data set [6]: CC(C)C[C@@H]1NC(=O)[C@@H](C(C)C)NC(=O)[C@@H]2CCCN2C(=O)[C@@H](CC(=O)O)NC(=O)[C@@H](Cc2c[nH]c3ccccc23)NC1=O
The data set is described as §1. The data set is classed as functional, cell-based, Oocyte.

Substrate in data set [7]: [H][C@]12CC[C@]3([H])[C@]([H])(CC[C@]4(C)C([C@H](C)CCC(=O)NCCS(=O)(=O)O)CC[C@@]34[H])[C@@]1(C)CC[C@@H](OS(=O)(=O)O)C2
The data set is described as §1. Type of data set: functional, cell-based, Oocyte.

Take `C[C@H](CCC(=O)NCCS(=O)(=O)O)C1CC[C@H]2[C@@H]3CC[C@@H]4C[C@H](OS(=O)(=O)O)CC[C@]4(C)[C@H]3CC[C@]12C` (some centres not stated): in data set [1], the Activity entry was “is not a substrate [-]”.

Consider GADOXETATE, for which the Activity entry in data set [1] was “is not a substrate [-]”.

For `CCCCC/C=C\C\C=C/C=C/C=C/[C@@H](SC[C@@H](NC(=O)CC[C@H](N)C(=O)O)C(=O)NCC(=O)O)[C@@H](O)CCCC(=O)O` [LEUKOTRIEN C4], the Activity entry in data set [1] was “is not a substrate [-]”.

On to `O=C1OC(c2ccc(O)c(S(=O)(=O)[O-])c2)(c2ccc(O)c(S(=O)(=O)[O-])c2)c2c(Br)c(Br)c(Br)c(Br)c21.[Na+].[Na+]` [SULFOBROMOPHTHALEIN SODIUM], for which the Activity result in data set [1] is “is not a substrate [-]”.

On to `C=CC1=C(C)/C(=C/c2[nH]c(Cc3[nH]c(/C=C4\NC(=O)C(C)=C4C=C)c(C)c3CCC(=O)O[C@@H]3OC(C(=O)O)[C@@H](O)C(O)C3O)c(CCC(=O)O)c2C)NC1=O` (some centres not stated) [BILIRUBIN MONOGLUCURONIDE], for which the Activity result in data set [2] was “substrate [+]”; in data set [1], “is not a substrate [-]”.

B1: Solute carrier organic anion transporter family member 1A4 (Rattus norvegicus) (protein)
chain: T1 sequence (O35913 whole entry)
Consider B1, for which the Michaelis-Menten constant (Km) in data set [3] came out at 17 µM; in data set [4] it was 17 µM; in data set [5], 12 µM; in data set [6], 30 µM.

B2: Solute carrier organic anion transporter family member 1A1 (Rattus norvegicus) (protein)
chain: T2 sequence (P46720 whole entry)
With B2, the figures for the Km in data set [6] and in data set [7] were 600 µM and 6 µM, respectively.

As a reminder, the Km is the substrate concentration at which the rate is half of its maximum.
